Laboratory results reported in patent publication US5561111A, “Stable glutamine derivatives for oral and intravenous rehydration and nutrition therapy” (The University of Virginia Patent Foundation, priority 1994, dated 1996).
Peptide text beside a SMILES is read from it.

Tested on: rabbit ileal mucosa
Experiment: Intestinal sodium cotransport in rabbit ileal mucosa mounted in Ussing chambers
Experimental: To study intestinal sodium cotransport using the compounds of the present invention, Ala-Glu and Ala-Gln were tested according to the method of Lima et al, Brazilian J. Med Biol. Res., 25:637-640 (1992) for measuring intestinal sodium cotransport in rabbit ileal mucosa mounted in Ussing chambers. […] As shown the dose response increases dramatically in a non-linear fashion. […] The pD2 value is related to the ED50 in accordance with the following formula: -log ED50 =pD2.

C[C@H](N)C(=O)N[C@@H](CCC(N)=O)C(=O)O [Ala-Gln, alanyl-glutamine] (H-Ala-Gln-OH)
maximum increase (Emax) in Isc: 150 μA/cm^2
